Key:
ewes = conditions: in vivo; cited from earlier work
Maiden Merino ewes = conditions: in vivo

In the case of `COc1ccc2[nH]cc(CCNC(C)=O)c2c1` [Melatonin, N-acetyl 5-methoxy tryptamine], the basal prolactin levels (ewes) is given as “depressed”, the breeding season (ewes) is given as “advanced” and the superovulation (Maiden Merino ewes) is given as “does not induce superovulation”.

— patent US4882137A, “Coated veterinary implants” (priority 1986, dated 1989)
